Data on five molecules can be found in paper PMC6066574, “Resistance to the Plant Defensin NaD1 Features Modifications to the Cell Wall and Osmo-Regulation Pathways of Yeast” (Frontiers in Microbiology, 2018).

Assay [1] has as its system NaD1-resistant strains of S. cerevisiae compared to wild type BY4741. Description: Stress spot assay on YPD agar. It counts as cell-based, Saccharomyces cerevisiae. Conditions: for concentration that inhibited NaD1-resistant strains but not the wild type: YPD agar spot assay, Figure 6; for concentration at which sensitivity of the NaD1-resistant strains was observed: YPD agar, fivefold dilution spots, overnight 30°C, Supplementary Figures 3 and 4; for growth of NaD1-resistant strains relative to wild-type: result in words. Here is the method:
YPD agar medium (25 mL) was amended to a final concentration of hydrogen peroxide (0.625 mM, 1.25 mM, 2.5 mM, 5 mM), CFW (1 μg/mL, 2.5 μg/mL, 5 μg/mL, 10 μg/mL), NaCl (100 mM, 200 mM, 300 mM), or SDS (12.5 μg/mL, 25 μg/mL, 50 μg/mL, 100 μg/mL) just before each plate was poured. Yeast cultures were grown overnight in 5 mL of YPD before dilution to an OD 600 nm of 0.1. A fivefold dilution series of each culture was spotted onto the plate (4 μL per spot) and incubated overnight at 30°C before being photographed.

Assay [2] concerns S. cerevisiae BY4741 wild-type. Description: Antifungal growth assay, wild-type strain. It counts as cell-based. Particulars: Saccharomyces cerevisiae. How it is done: (§1) Antifungal assays were performed as described in [Hayes et al. (2013)]. Briefly, cultures were grown overnight (30°C, 250 rpm) in 5 mL YPD and diluted to an OD600 of 0.01 in ½ PDB. Antifungal molecules were prepared at 10x the assay concentration, and 10 μL was mixed with 90 μL of diluted yeast culture before incubation for 24 h at 30°C. The final OD600 was measured using a SpectraMAX M5e plate reader (Molecular Devices).

Assay [3] has as its system S. cerevisiae NaD1-resistant strain A. The assay can be described thus: Antifungal growth assay, NaD1-R A. The assay is classed as cell-based. Conditions: Saccharomyces cerevisiae, Table 1, ½ PDB, 24 h at 30°C, OD600, read-out: Caspofungin MIC. How it is done: (§2) S. cerevisiae BY4741 was grown overnight at 30°C with agitation in 5 mL of YPD. The overnight culture was then diluted to an OD 600 nm of 0.01 in 50% strength PDB medium (½ PDB) before addition of antifungal molecules. Cultures were initially grown with the antifungal molecules at 0.5x the minimum inhibitory concentration (MIC) or 1x MIC alongside a negative control lacking antifungals. Three independent lines for the test and controls were grown at the same time. The cultures were incubated overnight at 30°C with agitation. […] Sub-culturing was stopped once growth occurred at 32 times the original MIC.
(§3) Cultures that were more tolerant to the antifungal molecule were streaked out for single colonies on non-selective YPD agar. Three colonies were picked from each line, and their resistance was re-tested. The colony with the highest resistance to the antifungal was retained for further experimentation. The MIC of pure strains isolated from each culture was broadly equivalent (Supplementary Figure 1).
(§4) Antifungal assays were performed as described in [Hayes et al. (2013)]. Briefly, cultures were grown overnight (30°C, 250 rpm) in 5 mL YPD and diluted to an OD600 of 0.01 in ½ PDB. […] The final OD600 was measured using a SpectraMAX M5e plate reader (Molecular Devices).

The subject of assay [4] is S. cerevisiae NaD1-resistant strain B. Description: Antifungal growth assay, NaD1-R B. Particulars: Saccharomyces cerevisiae, Table 1, ½ PDB, 24 h at 30°C, OD600, read-out: Caspofungin MIC. The assay is classed as cell-based. Here is the method: as §2, §3, §4
Assay [5] relates to S. cerevisiae NaD1-resistant strain C. Description: Antifungal growth assay, NaD1-R C. It counts as cell-based. Conditions: Saccharomyces cerevisiae, Table 1, ½ PDB, 24 h at 30°C, OD600, read-out: Caspofungin MIC. How it is done: as §2, §3, §4
Assay [6] has as its system S. cerevisiae Caspofungin-R A. The assay can be described thus: Antifungal growth assay, Caspofungin-R A. Particulars: Saccharomyces cerevisiae, Table 1, ½ PDB, 24 h at 30°C, OD600. The assay is classed as cell-based. Here is the method:
as §2, §3, §4

The subject of assay [7] is S. cerevisiae Caspofungin-R B. The assay can be described thus: Antifungal growth assay, Caspofungin-R B. Particulars: Saccharomyces cerevisiae, Table 1, ½ PDB, 24 h at 30°C, OD600. It counts as cell-based. How it is done:
as §2, §3, §4

In assay [8] the test system is S. cerevisiae Caspofungin-R C. Description: Antifungal growth assay, Caspofungin-R C. Conditions: Saccharomyces cerevisiae, Table 1, ½ PDB, 24 h at 30°C, OD600. The assay is classed as cell-based. Here is the method: as §2, §3, §4
Assay [9] concerns NaD1-resistant strains of S. cerevisiae. Description: Antifungal growth assay, NaD1-resistant strains (stated together). It counts as cell-based, Saccharomyces cerevisiae. Particulars: Figure 2B; result in words. How it is done:
as §2, §3, §4

For assay [10], the system named is caspofungin-resistant isolates of S. cerevisiae. Description: Antifungal growth assay, caspofungin-resistant isolates (stated together). The assay is classed as cell-based, Saccharomyces cerevisiae. Here is the method: as §2, §3, §4
Assay [11] has as its system no-treatment control lines of S. cerevisiae. The assay can be described thus: Antifungal growth assay, no-treatment control lines (stated together). It counts as cell-based. Particulars: Saccharomyces cerevisiae, read-out: MIC against no treatment control. Here is the method: as §2, §1
Assay [12] has as its system S. cerevisiae BY4741. Description: Serial sub-culturing in the presence of antifungal to develop resistance. The assay is classed as cell-based, Saccharomyces cerevisiae. Conditions: caspofungin-resistant lines. How it is done:
as §2

Values after ≈ are worked out from the molar mass of the structure shown. Where two headings read alike, the source gives them in different places.

As to `O=S(=O)(O)c1cc(Nc2nc(Nc3ccccc3)nc(N(CCO)CCO)n2)ccc1/C=C/c1ccc(Nc2nc(Nc3ccccc3)nc(N(CCO)CCO)n2)cc1S(=O)(=O)O` [CFW, calcofluor white], in [1], the “concentration that inhibited NaD1-resistant strains but not the wild type” value stood at 10 µg/mL and the “concentration at which sensitivity of the NaD1-resistant strains was observed” value stood at 1 µg/mL.
As for `[Cl-].[Na+]` [NaCl], the “growth of NaD1-resistant strains relative to wild-type” value in assay [1] (200 mM NaCl in YPD agar) is reported as “grew better than wild-type”.
`CCCCCCCCCCCCOS(=O)(=O)[O-].[Na+]` [SDS]: in assay [1], the “concentration that inhibited NaD1-resistant strains but not the wild type” value was 100 µg/mL and the “concentration at which sensitivity of the NaD1-resistant strains was observed” value came out at 12.5 µg/mL.
`CC[C@H](C)C[C@H](C)CCCCCCCCC(=O)N[C@H]1C[C@@H](O)[C@@H](NCCN)NC(=O)[C@@H]2[C@@H](O)CCN2C(=O)[C@H]([C@H](O)CCN)NC(=O)[C@H]([C@H](O)[C@@H](O)c2ccc(O)cc2)NC(=O)[C@@H]2C[C@@H](O)CN2C(=O)[C@H]([C@@H](C)O)NC1=O` [caspofungin]: the minimum inhibitory concentration (MIC) in assay [2] (Table 1, Wild-type, ½ PDB, 24 h at 30°C, OD600, read-out: Caspofungin MIC) came to 0.02 µM (≈ 0.0219 µg/mL); in assay [2] (initial MIC at the start of sub-culturing, read-out: initial MIC) it was 0.01 µM (≈ 0.0109 µg/mL); in assay [3], 0.025 µM (≈ 0.0273 µg/mL); in assay [4], 0.025 µM (≈ 0.0273 µg/mL); in assay [5], 0.025 µM (≈ 0.0273 µg/mL); in assay [6] it was 0.5 µM (≈ 0.547 µg/mL). Besides, the minimal inhibitory concentration (MIC) worked out at 0.5 µM (≈ 0.547 µg/mL) in assay [7]; 0.5 µM (≈ 0.547 µg/mL) in assay [8]; 0.5 µM (≈ 0.547 µg/mL) in assay [10] (Saccharomyces cerevisiae, read-out: MIC against caspofungin-resistant isolates); 0.02 µM (≈ 0.0219 µg/mL) in assay [11]. In addition, in assay [9], the “sensitivity of NaD1-resistant strains compared with wild type” value is “as sensitive to caspofungin as the wild-type strain”. Besides, the “fold more resistant than no treatment control / wild type (MIC ratio)” value in [10] (caspofungin-resistant isolates versus no treatment control / wild type) was determined as 25 fold. Also, the “rounds of sub-culture to achieve growth at concentrations 32-fold higher than the initial MIC” value in assay [12] came to 15 rounds.
Consider `OO` [hydrogen peroxide], for which, in assay [1] (range of hydrogen peroxide concentrations in YPD agar), the “growth of NaD1-resistant strains relative to wild-type” value is “grew the same as the wild-type strain”.

Usually MIC stands for the least concentration at which growth counts as inhibited.
